Assay results as given in patent publication US20020137929A1, “1 - (3-heterocyclylphenyl) isothiourea, -isourea, -guanidine and -amidine herbicidal agents” (Intellectual Property Department, BASF Aktiengesellschaft, priority 1998, published 2002).

What was measured:
[1] = tested on: SETVI (Foxtail, Green); assay: Postemergence herbicidal evaluation; format: in vivo, Setaria viridis; conditions: postemergence
Method in brief: (§1)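 Seedlings grown about two weeks were sprayed at 40 psi with compound dispersed in 50/50 acetone/water plus 0.5% TWEEN 20, at about 0.0156 to 0.500 kg/ha. Plants were kept in the greenhouse and scored 4–5 weeks later on a 0–9 visual scale against untreated controls.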

[2] = tested on: CHEAL (Lambsquarters, Common); assay: Preemergence herbicidal evaluation; format: in vivo, Chenopodium album; conditions: rated 4-5 weeks after treatment
Method in brief: (§2)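 Sown cups got a single aqueous acetone spray of test compound (roughly 0.0156–0.500 kg/ha) before seedlings emerged. Evaluation, 4–5 weeks on, used a 0–9 visual scale covering plant stand, vigor, size, malformation, chlorosis and general appearance compared with controls.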

[3] = tested on: CYPSE (Flatsedge); assay: Preemergence weed control under flooded paddy conditions; format: in vivo, Cyperus serotinus; conditions: rated 3-4 weeks after treatment
Method in brief: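 First, seeds or propagules go into the top 0.5 cm of silt loam; next, water is held 1.5 to 3 cm over the soil; then compound (50/50 acetone/water) is pipetted into it at about 0.0313 to 0.500 kg/ha; finally plants are rated visually 0-9 after three to four weeks.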

[4] = tested on: AMBEL (Ragweed, Common); assay: Preemergence herbicidal evaluation; format: in vivo, Ambrosia artemisifolia; conditions: rated 4-5 weeks after treatment
Method in brief: as §2

[5] = tested on: ECHORC (Watergrass (Calif.)); assay: Preemergence weed control under flooded paddy conditions; format: in vivo, Echinochloa oryzoides; conditions: rated 3-4 weeks after treatment
Method in brief: (§3)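 Visual injury scored 0-9 against control three to four weeks post-treatment, greenhouse-grown. Application: acetone/water (50/50) solutions dosed directly into flood water (1.5-3 cm over silt loam, planted top 0.5 cm), roughly 0.0313 to 0.500 kg/ha active ingredient.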

[6] = tested on: ORYSAT (Rice, Tebonnet); assay: Postemergence herbicidal evaluation; format: in vivo, Oryza sativa, (L.) Tebonnet; conditions: postemergence
Method in brief: as §1

[7] = tested on: AMBEL (Ragweed, Common); assay: Postemergence herbicidal evaluation; format: in vivo, Ambrosia artemisifolia; conditions: postemergence
Method in brief: as §1

[8] = tested on: GLXMAW (Soybean, Williams); assay: Postemergence herbicidal evaluation; format: in vivo, Glycine max, (L.) Merr. cv Williams; conditions: postemergence
Method in brief: as §1

[9] = tested on: ABUTH (Velvetleaf); assay: Preemergence herbicidal evaluation; format: in vivo, Abutilon theophrasti; conditions: rated 4-5 weeks after treatment
Method in brief: as §2

[10] = tested on: ECHCG (Barnyardgrass); assay: Postemergence herbicidal evaluation; format: in vivo, Echinochloa crus-galli; conditions: postemergence
Method in brief: as §1

[11] = tested on: ZEAMX (Corn, Field); assay: Preemergence herbicidal evaluation; format: in vivo, Zea mays; conditions: rated 4-5 weeks after treatment
Method in brief: as §2

[12] = tested on: CYPIR (Rice Flatsedge); assay: Preemergence weed control under flooded paddy conditions; format: in vivo, Cyperus iria; conditions: rated 3-4 weeks after treatment
Method in brief: as §3

For `CCOC(=O)CN1C(=O)C(CC(=O)NS(=O)(=O)C(C)C)SC1=Nc1cc(-n2c(=O)cc(C(F)(F)F)n(C)c2=O)c(F)cc1Cl` (stereo not shown) [Compound 117, Ethyl 2-{{2-chloro-5-[3,6-dihydro-3-methyl-2,6-dioxo-4-(trifluoromethyl)-1(2H)-pyrimidinyl]-4-fluorophenyl}imino}-5-{[(isopropylsulfonyl)-carbamoyl]methyl}-4-oxo-3-thiazolidineacetate], the “herbicidal rating SETVI” value ([1]; rate 0.0158 kg/ha) was 1.0, the “herbicidal rating SETVI” value ([1]; rate 0.0315 kg/ha) was 2.0 and the “herbicidal rating SETVI” value ([1]; rate 0.0630 kg/ha) was 2.0. For the same molecule, the “Preemergence herbicidal rating CHEAL” value ([2]; rate 0.0156 kg/ha) was 9.0, the “Preemergence herbicidal rating CHEAL” value ([2]; rate 0.0313 kg/ha) was 9.0 and the “Preemergence herbicidal rating CHEAL” value ([2]; rate 0.0625 kg/ha) was 9.0. For the same molecule, the “Preemergence herbicidal rating CHEAL” value ([2]; rate 0.1250 kg/ha) was 6.0, the “Preemergence herbicidal rating CHEAL” value ([2]; rate 0.2500 kg/ha) was 9.0 and the “herbicidal effect rating, CYPSE” value ([3]; 0.0625 kg/ha) was 7.0. For the same molecule, the “herbicidal effect rating, CYPSE” value ([3]; 0.1250 kg/ha) was 9.0, the “herbicidal effect rating, CYPSE” value ([3]; 0.2500 kg/ha) was 9.0 and the “Preemergence herbicidal rating AMBEL” value ([4]; rate 0.0156 kg/ha) was 0.0. For the same molecule, the “Preemergence herbicidal rating AMBEL” value ([4]; rate 0.0313 kg/ha) was 0.0, the “Preemergence herbicidal rating AMBEL” value ([4]; rate 0.0625 kg/ha) was 0.0 and the “Preemergence herbicidal rating AMBEL” value ([4]; rate 0.1250 kg/ha) was 0.0. The “Preemergence herbicidal rating AMBEL” value ([4]; rate 0.2500 kg/ha) was 7.0, the “herbicidal effect rating, ECHORC” value ([5]; 0.0313 kg/ha) was 0.0 and the “herbicidal effect rating, ECHORC” value ([5]; 0.0625 kg/ha) was 0.0. The “herbicidal effect rating, ECHORC” value ([5]; 0.1250 kg/ha) was 0.0, the “herbicidal effect rating, ECHORC” value ([5]; 0.2500 kg/ha) was 0.0 and the “herbicidal rating ORYSAT” value ([6]; rate 0.0158 kg/ha) was 2.0. For the same molecule, the “herbicidal rating ORYSAT” value ([6]; rate 0.0315 kg/ha) was 2.0, the “herbicidal rating ORYSAT” value ([6]; rate 0.0630 kg/ha) was 3.0 and the “herbicidal rating AMBEL” value ([7]; rate 0.0158 kg/ha) was 4.0. The “herbicidal rating AMBEL” value ([7]; rate 0.0315 kg/ha) was 5.0, the “herbicidal rating AMBEL” value ([7]; rate 0.0630 kg/ha) was 7.0 and the “herbicidal rating GLXMAW” value ([8]; rate 0.0158 kg/ha) was 5.0. For the same molecule, the “herbicidal rating GLXMAW” value ([8]; rate 0.0315 kg/ha) was 5.0, the “herbicidal rating GLXMAW” value ([8]; rate 0.0630 kg/ha) was 6.0 and the “Preemergence herbicidal rating ABUTH” value ([9]; rate 0.0156 kg/ha) was 0.0. The “Preemergence herbicidal rating ABUTH” value ([9]; rate 0.0313 kg/ha) was 0.0, the “Preemergence herbicidal rating ABUTH” value ([9]; rate 0.0625 kg/ha) was 0.0 and the “Preemergence herbicidal rating ABUTH” value ([9]; rate 0.1250 kg/ha) was 1.0. For the same molecule, the “Preemergence herbicidal rating ABUTH” value ([9]; rate 0.2500 kg/ha) was 9.0, the “herbicidal rating ECHCG” value ([10]; rate 0.0158 kg/ha) was 1.0 and the “herbicidal rating ECHCG” value ([10]; rate 0.0315 kg/ha) was 2.0. For the same molecule, the “herbicidal rating ECHCG” value ([10]; rate 0.0630 kg/ha) was 1.0, the “Preemergence herbicidal rating ZEAMX” value ([11]; rate 0.0156 kg/ha) was 0.0 and the “Preemergence herbicidal rating ZEAMX” value ([11]; rate 0.0313 kg/ha) was 0.0. For the same molecule, the “Preemergence herbicidal rating ZEAMX” value ([11]; rate 0.0625 kg/ha) was 0.0, the “Preemergence herbicidal rating ZEAMX” value ([11]; rate 0.1250 kg/ha) was 1.0 and the “Preemergence herbicidal rating ZEAMX” value ([11]; rate 0.2500 kg/ha) was 0.0. The “herbicidal effect rating, CYPIR” value ([12]; 0.0313 kg/ha) was 0.0, the “herbicidal effect rating, CYPIR” value ([12]; 0.0625 kg/ha) was 2.0 and the “herbicidal effect rating, CYPIR” value ([12]; 0.1250 kg/ha) was 5.0. The “herbicidal effect rating, CYPIR” value ([12]; 0.2500 kg/ha) was 6.0.
`C=CCN1C(=O)C(CC(=O)NS(=O)(=O)C(C)C)SC1=Nc1cc(-n2c(=O)cc(C(F)(F)F)n(C)c2=O)c(F)cc1Cl` (stereo not shown) [Compound 118, 3-Allyl-2-{{2-chloro-5-[3,6-dihydro-3-methyl-2,6-dioxo-4-(trifluoromethyl)-1(2H)-pyrimidinyl]-4-fluorophenyl}imino}-N-(isopropylsulfonyl)-4-oxo-5-thiazolidineacetamide] was tested, and the “herbicidal rating SETVI” value ([1]; rate 0.0158 kg/ha) was 0.0, the “herbicidal rating SETVI” value ([1]; rate 0.0315 kg/ha) was 0.0 and the “herbicidal rating SETVI” value ([1]; rate 0.0630 kg/ha) was 4.0. For the same molecule, the “Preemergence herbicidal rating CHEAL” value ([2]; rate 0.0625 kg/ha) was 6.0, the “Preemergence herbicidal rating CHEAL” value ([2]; rate 0.1250 kg/ha) was 9.0 and the “Preemergence herbicidal rating CHEAL” value ([2]; rate 0.2500 kg/ha) was 9.0. The “herbicidal effect rating, CYPSE” value ([3]; 0.0313 kg/ha) was 0.0, the “herbicidal effect rating, CYPSE” value ([3]; 0.0625 kg/ha) was 0.0 and the “herbicidal effect rating, CYPSE” value ([3]; 0.1250 kg/ha) was 0.0. The “herbicidal effect rating, CYPSE” value ([3]; 0.2500 kg/ha) was 0.0, the “Preemergence herbicidal rating AMBEL” value ([4]; rate 0.0625 kg/ha) was 0.0 and the “Preemergence herbicidal rating AMBEL” value ([4]; rate 0.1250 kg/ha) was 0.0. The “Preemergence herbicidal rating AMBEL” value ([4]; rate 0.2500 kg/ha) was 6.0, the “herbicidal effect rating, ECHORC” value ([5]; 0.0313 kg/ha) was 0.0 and the “herbicidal effect rating, ECHORC” value ([5]; 0.0625 kg/ha) was 0.0. For the same molecule, the “herbicidal effect rating, ECHORC” value ([5]; 0.1250 kg/ha) was 4.0, the “herbicidal effect rating, ECHORC” value ([5]; 0.2500 kg/ha) was 6.0 and the “herbicidal rating ORYSAT” value ([6]; rate 0.0158 kg/ha) was 2.0. The “herbicidal rating ORYSAT” value ([6]; rate 0.0315 kg/ha) was 2.0, the “herbicidal rating ORYSAT” value ([6]; rate 0.0630 kg/ha) was 2.0 and the “herbicidal rating AMBEL” value ([7]; rate 0.0158 kg/ha) was 0.0. The “herbicidal rating AMBEL” value ([7]; rate 0.0315 kg/ha) was 2.0, the “herbicidal rating AMBEL” value ([7]; rate 0.0630 kg/ha) was 2.0 and the “herbicidal rating GLXMAW” value ([8]; rate 0.0158 kg/ha) was 4.5. The “herbicidal rating GLXMAW” value ([8]; rate 0.0315 kg/ha) was 5.0, the “herbicidal rating GLXMAW” value ([8]; rate 0.0630 kg/ha) was 6.0 and the “Preemergence herbicidal rating ABUTH” value ([9]; rate 0.0625 kg/ha) was 9.0. For the same molecule, the “Preemergence herbicidal rating ABUTH” value ([9]; rate 0.1250 kg/ha) was 9.0, the “Preemergence herbicidal rating ABUTH” value ([9]; rate 0.2500 kg/ha) was 7.0 and the “herbicidal rating ECHCG” value ([10]; rate 0.0158 kg/ha) was 0.0. For the same molecule, the “herbicidal rating ECHCG” value ([10]; rate 0.0315 kg/ha) was 1.0, the “herbicidal rating ECHCG” value ([10]; rate 0.0630 kg/ha) was 1.0 and the “Preemergence herbicidal rating ZEAMX” value ([11]; rate 0.0625 kg/ha) was 0.0. For the same molecule, the “Preemergence herbicidal rating ZEAMX” value ([11]; rate 0.1250 kg/ha) was 0.0, the “Preemergence herbicidal rating ZEAMX” value ([11]; rate 0.2500 kg/ha) was 0.0 and the “herbicidal effect rating, CYPIR” value ([12]; 0.0313 kg/ha) was 0.0. For the same molecule, the “herbicidal effect rating, CYPIR” value ([12]; 0.0625 kg/ha) was 0.0, the “herbicidal effect rating, CYPIR” value ([12]; 0.1250 kg/ha) was 0.0 and the “herbicidal effect rating, CYPIR” value ([12]; 0.2500 kg/ha) was 0.0.
